Experimental data from patent US10172917B2, “Targeted oesophageal administration of ZN-α2-glycoproteins (ZAG), methods and formulations thereof” (ASTON UNIVERSITY, priority 2012, dated 2019).
Entries after “also recorded” stand apart in the source; their conditions may differ.

Legend:
[1] = system: white and brown adipocytes; assay: Glucose uptake ex vivo into white and brown adipocytes of treated ob/ob mice; type: in vivo, mouse; details: ob/ob mice treated 8 days; absence and presence of insulin (10 nM)
Description: Single cell suspensions of white and brown adipocytes were obtained by incubation of minced epididymal subcutaneous and visceral WAT and BAT for 2 and 2.5 h, respectively, with Krebs-Ringer bicarbonate (KRBB) containing 1.5 mgml^−1 collagenase and 4% BSA under 95% oxygen-5% CO2 at 37° C. Adipocytes were washed twice in 1 ml KRBB, pH7.2, and then incubated for 10 min at room temperature in 0.5 ml KRBB, containing 18.5 MBq 2-[1-^14C] deoxy-D-glucose (2-DG), together with non-radioactive 2-DG, to give a final concentration of 0.1 mM, in the absence or presence of insulin (10 nM). Uptake was terminated by addition of 1 ml ice-cold KRBB without glucose. Adipocytes were washed three times with 1 ml KRBB and lysed by the addition of 0.5 ml 1M NaOH. The uptake of 2-[1-^14C] DG was determined by liquid scintillation counting.

murine ZAG = assay: Western blotting of murine ZAG in serum and WAT of ob/ob mice; type: in vivo, mouse; details: ob/ob mice, oral ZAG + propanolol 40 mgkg^−1
Description: Tissues were thawed, washed in PBS and lysed in Phosphosafe™ Extraction reagent for 5 min at room temperature, followed by sonication at 4° C. Cytosolic protein (5-20 ug) formed by centrifugation at 18,000 g for 5 min at 4° C., was resolved on 12% SDS PAGE by electrophoresis at 180V for about 1 h. To determine ZAG in serum 30 μl samples containing 20 μg total protein were electrophoresed as above. Protein was transferred to 0.45 μm nitrocellulose membranes, which had been blocked with 5% (w/v) non-fat dried milk (Marvel) in Tris-buffered saline, pH 7.5, at 4° C. overnight. Membranes were washed for 15 min in 0.1% Tween 20 buffered saline prior to adding the primary antibodies. Both primary and secondary antibodies were used at a dilution of 1:1000. Incubation was for 1 h at room temperature, and development was by ECL. Blots were scanned by a densitometer to quantify differences.

ob/ob mice [2] = assay: Oral glucose tolerance test in ob/ob mice after 3 days of oral ZAG; type: in vivo, mouse; details: oral ZAG + propanolol 40 mgkg^−1, day 3
Description: Animals were grouped (n=5) to receive either ZAG/PBS (50 μg day^−1), or PBS in their drinking water, the experiment was repeated three times after a power analysis was performed. […] The ZAG was replaced every 48 h. One group of mice receiving ZAG were also administered propanolol (40 mgkg^−1, p.o.) daily. The dose of ZAG was chosen to be the same as that previously administered i.v. (1), so that a direct comparison could be made, between the two routes. Body weight, food and water intake, urinary glucose excretion, and body temperature, determined by the use of a rectal thermometer (RS Components, Northants, UK), were measured daily. A glucose tolerance test was performed on day 3. Animals were fasted for 12 h, followed by oral administration of glucose (1 gkg^−1 in a volume of 100 μl by gavage). Blood samples were removed from the tail vein at 15, 30, 60 and 120 min and used for the measurement of glucose. Urinary glucose was measured by collecting 0.5 ml urine and testing glucose concentration using a Boots glucose monitor. After 8 days of treatment the animals were terminated by cervical dislocation, tissues were removed and rapidly frozen in liquid nitrogen, and maintained at −80° C. […] Animal studies were conducted under Home Office Licence according to the UKCCCR Guidelines for the care and use of laboratory animals.

gastrocnemius muscle = assay: Glucose uptake ex vivo into isolated muscle of treated ob/ob mice; type: in vivo, mouse; details: ob/ob mice treated 8 days; presence of insulin
ob/ob mice [3] = assay: Serum metabolite and insulin levels in ob/ob mice after ZAG administration; type: in vivo, mouse; details: ob/ob mice, oral ZAG + propanolol
Excerpt: FCS (foetal calf serum) was from Biosera (Sussex, UK), while DMEM (Dulbecco's modified Eagles Medium) was from PAA (Somerset, UK) and Freestyle medium was purchased from Invitrogen (Paisley, UK). Hybond A nitrocellulose membranes and peroxidise—conjugated rabbit anti-mouse antibody were from GE Healthcare (Bucks, UK), while enhanced chemiluminescene (ECL) development kits were purchased from Thermo Scientific (Northumberland, UK). Mouse monoclonal antibodies to full-length human and mouse ZAG were from Santa Cruz Biotechnology (Santa Cruz, Calif. A mouse insulin ELISA kit was purchased from DRG (Marburg, Germany) and glucose measurements in both urine and plasma were made using a Boots (Nottingham, UK) glucose kit. L-[U-^14C] tyrosine (sp.act 16.7 GBqmmol^−1) was purchased from Perkin Elmer Ltd, (Cambridge, UK), while 2-[1-^14C] deoxy-D-glucose (sp.act 1.85 GBqmmol^−1) was from American Radiolabeled Chemicals (Cardiff, UK).
(§1) Obese (ob/ob) mice (average weight 65 g) were bred in a colony, and were kept in an air conditioned room at 22+2° C. with ad libitum feeding of a rat and mouse breeding diet (Special Diet Services, Witham, UK) and tap water. […] Animals were grouped (n=5) to receive either ZAG/PBS (50 μg day^−1), or PBS in their drinking water, the experiment was repeated three times after a power analysis was performed. […] The ZAG was replaced every 48 h. One group of mice receiving ZAG were also administered propanolol (40 mgkg^−1, p.o.) daily. The dose of ZAG was chosen to be the same as that previously administered i.v. (1), so that a direct comparison could be made, between the two routes. Body weight, food and water intake, urinary glucose excretion, and body temperature, determined by the use of a rectal thermometer (RS Components, Northants, UK), were measured daily. A glucose tolerance test was performed on day 3. Animals were fasted for 12 h, followed by oral administration of glucose (1 gkg^−1 in a volume of 100 μl by gavage). Blood samples were removed from the tail vein at 15, 30, 60 and 120 min and used for the measurement of glucose. Urinary glucose was measured by collecting 0.5 ml urine and testing glucose concentration using a Boots glucose monitor. After 8 days of treatment the animals were terminated by cervical dislocation, tissues were removed and rapidly frozen in liquid nitrogen, and maintained at −80° C. Future work would be to repeat this work in diet-induced animals as alternative to a model with gene alteration, although previous studies have shown the ob/ob mouse to be a good indicator of potential human treatments. Animal studies were conducted under Home Office Licence according to the UKCCCR Guidelines for the care and use of laboratory animals.

ob/ob mice [4] = assay: Oral ZAG in drinking water to ob/ob mice: body weight, rectal temperature, urinary glucose excretion; type: in vivo, mouse
Description: as §1, with “One group of mice receiving ZAG were also administered propanolol (40 mgkg^−1, p.o.) daily.” left out

3T3 L1 adipocytes = details: cited from earlier work
[5] = oral ZAG + propanolol 40 mgkg^−1

| Structure (SMILES) | effect of propanolol on ZAG-induced glucose uptake into BAT [1] | effect of propanolol on ZAG-induced stimulation of glucose uptake ex vivo into epididymal, subcutaneous and visceral adipocytes [1] | murine ZAG in the serum of animals given ZAG and co-administered propanolol (murine ZAG) | effect of propanolol on ZAG-induced increase in insulin sensitivity (ob/ob mice [2]) | effect of propanolol on ZAG-reduced peak blood glucose concentration / improvement in glucose disposal in glucose tolerance test (ob/ob mice [2]) | effect of propanolol on ZAG-induced glucose uptake ex vivo into gastrocnemius muscle (gastrocnemius muscle) | effect of propanolol on decrease in serum glucose after ZAG administration (ob/ob mice [3]) | effect of propanolol on decrease in serum insulin levels after ZAG administration (ob/ob mice [3]) | effect of propanolol on weight gain of mice administered PBS (ob/ob mice [4]; PBS + propanolol) | effect of propanolol on ZAG-induced weight loss (ob/ob mice [4]; oral ZAG 50 μg daily + propanolol 40 mg/kg po daily) | effect of propanolol on ZAG-induced weight loss (ob/ob mice [4]; oral ZAG + propanolol 20 mgkg^−1) | effect of propanolol on ZAG induced increase in rectal temperature (ob/ob mice [4]; [5]) | effect of propanolol on ZAG induced reduction in urinary excretion of glucose (ob/ob mice [4]; [5]) | levels of ZAG mRNA (3T3 L1 adipocytes) |
| --- | --- | --- | --- | --- | --- | --- | --- | --- | --- | --- | --- | --- | --- | --- |
| CC(C)NC[C@H](O)COc1cccc2ccccc12 (racemic) [propanolol] | attenuated | attenuated | no increase; also recorded: attenuated | blocked; also recorded: attenuated | blocked; also recorded: attenuated | attenuated | completely attenuated | completely attenuated | no effect | blocked; also recorded: attenuated | did not prevent the weight loss | completely attenuated | completely attenuated | – |
| C[C@H](Cc1ccc(OCC(=O)O)cc1)NC[C@H](O)c1cccc(Cl)c1 [BRL37344] | – | – | – | – | – | – | – | – | – | – | – | – | – | increase |
